Values after ≈ are worked out from the molar mass of the structure shown.
Assays:
[1] = test system: Malassezia sympodialis ATCC 42132; assay: Classic assay for susceptibility testing of planktonically growing cells (OD580); assay type: cell-based, Malassezia sympodialis (former M. furfur); details: for inhibition at 12.5 µg/mL: read-out: Classic Assay, planktonic growth, inhibition
Description: Routine cultivation of M. sympodialis: M. sympodialis (former M. furfur) CBS 1878 was obtained from the Centraalbureau voor Schimmelcultures Fungal Biodiversity Centre. It was routinely grown on Dixon-agar plates in a humid atmosphere (“wet box”) at 33° C., or in Sabouraud-Maltose (SM) broth complemented with Tween80 and Glycerin-monostearate for liquid cultures in shake-flasks (300 ml operated with 50 ml medium) with agitation (150 rpm).
(§1) General Assay Conditions • 1. Strain: Malassezia sympodialis ATCC 42132 • 2. Growth conditions: • Sabouraud-medium supplemented with dextrose (20 g/l), Tween 80 (1%) and glycerol-monostearat (emulsifier; 0.05%). Static incubation in flat-bottom 96-well microtiterplates (total volume 340 μl, working volume 200 μl; surface area 148 mm2). Incubation at 33° C. in humid atmosphere (wet-box) to avoid dessication. Incubation periods vary according to the assay format. Suspensions used for inoculation were adjusted to an optical density (OD580) of 0.1 • 3. […] Controls • Sterile media was used as negative control; cells cultivated in absence of any test compound but in presence of equal amounts of DMSO compared to samples (see below) were regarded as positive control (unrestricted growth) • 5. All compounds (test-samples and references) are dissolved in DMSO. […] Unless otherwise stated, test compound concentration was 12.5 μg/ml
Routine susceptibility testing of M. sympodialis in high throughput format was done by simultaneous addition of test compounds and inoculum. Seven days after inoculation and when planktonic growth of the untreated control ceased, the effect of the test compounds was evaluated by comparison of the turbidity (optical density, OD580) of treated and untreated samples (control; 100%).
The classic assay is the platform to determine dose-response relationships, where serial dilutions of compounds are evaluated. For description of these relationships, values for the minimal effective concentration and the concentration effective in reducing cell proliferation by 50% (IC50) are generated.

[2] = test system: Malassezia sympodialis ATCC 42132; assay: Mid-log assay (compound added at half-maximum OD580); assay type: cell-based, Malassezia sympodialis (former M. furfur); details: Example 7; for inhibition at 12.5 µg/mL: Malassezia sympodialis, ATCC42132, read-out: Mid-log Assay %-inhibition compared to benchmark
Description: Cells are cultivated to half-maximal OD580 before test compounds are added (arrow). Value of OD580 at time of sample application is set 100%. […] Blue diamonds, untreated control cells; pink rectangles, cells treated with test compounds.
as §1
For the so called “mid-log assay”, cells are grown to half-maximum optical density before test compounds are added. […] Numbers for OD580 of untreated control samples and samples treated with test compounds are compared to t0-value, which is defined as the 100% level. The value for OD580 of the untreated control sample in stationary phase (end of experiment) is defined as the “control-level” (for unrestricted growth). Values for control-levels are solely dependent on t0-values and therefore vary with each experiment; thus, they cannot be standardised.
Exponentially growing cells (mid-log) are in a defined active state with respect to proliferation and metabolic activity. […] Moreover, the mode of inhibition caused by the test compound can be determined (see above).

[3] = Malassezia sympodialis, ATCC42132, Example 7, 12.5 μg/ml unless otherwise stated
[4] = 12.5 μg/ml unless otherwise stated

Molecule | inhibition at 12.5 µg/mL [1, 3] [%] | Mid-log Assay Level-% ([2]; OD580 at addition = 100%, Control-level 399) [%] | inhibition at 12.5 µg/mL [2, 4] [%] | Classic Assay, planktonic growth, inhibition ([1]; Example 7, 12.5 μg/ml unless otherwise stated) [% inhibition] | IC50 (concentration reducing cell proliferation by 50%), planktonic growth ([1]; serial dilutions, classic assay) [µg/mL] | Mid-log Assay %-inhibition compared to benchmark [2, 4] [%] | IC50 ([1]; Malassezia sympodialis, ATCC42132, serial dilutions, classic assay, read-out: IC50 (concentration reducing cell proliferation by 50%), planktonic growth) [µg/mL]
C=CC(OC(C)=O)c1ccc(OC(C)=O)cc1 (stereo not drawn) [1-acetoxychavicol, 1-acetoxychavicol acetate] | 61 | 379 | 11 | – | – | – | –
Zinc Pyrithione | – | – | – | 73 | 12.4 | 16 | –
CC(C)(C)C(=O)C(Oc1ccc(Cl)cc1)n1ccnc1 (stereo not drawn) [Crinipan, climbazole] | 93 | – | 66 | – | – | – | 0.2 (≈ 0.683 µM)
